Test results: patent publication US20230312587A1, “PTERIDINONE COMPOUNDS AND USES THEREOF” (Vertex Pharmaceutical Incorporated, priority 2018, published 2023)
Where two headings read alike, the source gives them in different places.

System: β-catenin-TCF-mediated reporter transcription activity in Colo 205 cells
Test: Colo 205 reporter assay (TCF/LEF luciferase)
Type: cell-based
Summary of the method: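 Luciferase signal from a TCF/LEF-driven reporter, stably integrated in Colo 205 colon cancer cells, was measured 5 h after compound addition.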

[1] = Homo sapiens, COLO 205, 5 h, Colo 205 TCF/LEF luciferase reporter, five hours after addition of compound, read-out: TCF reporter Colo205 IC50

Structure (SMILES) | IC50 [1] [nM] | other results
Cc1nc(NCc2cnn(Cc3ccccc3)c2)nc2c1NC(=O)[C@H](C)N2C [Compound 53, (7S)-2-(((1-benzyl-1H-pyrazol-4-yl)methyl)amino)-4,7,8-trimethyl-7,8-dihydropteridin-6(5H)-one] | < 300 | 
Cc1nc(NCc2cnn(Cc3cnccc3C(F)(F)F)c2)nc2c1NC(=O)[C@H](C)N2C [Compound 182, (7S)-4,7,8-trimethyl-2-(((1-((4-(trifluoromethyl)pyridin-3-yl)methyl)-1H-pyrazol-4-yl)methyl)amino)-7,8-dihydropteridin-6(5H)-one] | < 300 | 
Cc1cc(OC(C)C)ncc1Cn1cc(CNc2nc(C)c3c(n2)N(C)[C@@H](C)C(=O)N3)cn1 [Compound 168, (7S)-2-(((1-((6-isopropoxy-4-methylpyridin-3-yl)methyl)-1H-pyrazol-4-yl)methyl)amino)-4,7,8-trimethyl-7,8-dihydropteridin-6(5H)-one] | < 300 | 
Cc1nc(NCc2ncn(Cc3cc(F)c(F)c(F)c3)n2)nc2c1NC(=O)[C@H](C(C)C)N2C [Compound 490, (S)-7-isopropyl-4,8-dimethyl-2-(((1-(3,4,5-trifluorobenzyl)-1H-1,2,4-triazol-3-yl)methyl)amino)-7,8-dihydropteridin-6(5H)-one] | ≥ 5000 | 
Cc1nc(N[C@H]2C[C@H](N(C)c3cnc(C(F)(F)F)cn3)C2)nc2c1NC(=O)[C@H](C)N2C [Compound 683, (S)-4,7,8-trimethyl-2-((trans-3-(methyl(5-(trifluoromethyl)pyrazin-2-yl)amino)cyclobutyl)amino)-7,8-dihydropteridin-6(5H)-one] | 300 to 1000 | 
Cc1nc(NCc2cnn([C@H]3CCN(c4ccc(F)cc4)C3)c2)nc2c1NC(=O)[C@H](C)N2C [Compound 171, (7S)-2-(((1-((S)-1-(4-fluorophenyl)pyrrolidin-3-yl)-1H-pyrazol-4-yl)methyl)amino)-4,7,8-trimethyl-7,8-dihydropteridin-6(5H)-one] | < 300 | 
Cc1nc(N[C@H]2C[C@@H](COc3cnc(Cl)c(F)c3)C2)nc2c1NC(=O)[C@H](C)N2C [Compound 367, (7S)-2-((cis-3-(((6-chloro-5-fluoropyridin-3-yl)oxy)methyl)cyclobutyl)amino)-4,7,8-trimethyl-7,8-dihydropteridin-6(5H)-one] | < 300 | 
Cc1nc(NCc2cnn(CCc3cc(F)c(F)c(F)c3)c2)nc2c1NC(=O)[C@H](C)N2C [Compound 123, (7S)-4,7,8-trimethyl-2-(((1-(3,4,5-trifluorophenethyl)-1H-pyrazol-4-yl)methyl)amino)-7,8-dihydropteridin-6(5H)-one] | < 300 | 
Cc1nc(N[C@H]2C[C@@H](COc3ccc(C(F)(F)F)nc3)C2)nc2c1NC(=O)[C@H](C)N2C [Compound 364, (7S)-4,7,8-trimethyl-2-((cis-3-(((6-(trifluoromethyl)pyridin-3-yl)oxy)methyl)cyclobutyl)amino)-7,8-dihydropteridin-6(5H)-one] | < 300 | 
CC(=O)NCCCC[C@H](N)C(=O)N(Cc1cnn(Cc2ccc(C(F)(F)F)nc2)c1)c1nc(C)c2c(n1)N(C)[C@@H](C)C(=O)N2 [Compound 404, (7S)-6-acetamido-2-amino-N-((1-((6-(trifluoromethyl)pyridin-3-yl)methyl)-1H-pyrazol-4-yl)methyl)-N-((S)-4,7,8-trimethyl-6-oxo-5,6,7,8-tetrahydropteridin-2-yl)hexanamide] |  | IC50 (Colo 205 cells with stably transfected TCF/LEF luciferase reporter, five hours after addition of compound, read-out: TCF reporter Colo205): ≥ 5000 nM
COC1(C2C(=O)Nc3c(C)nc(NCc4cnn(Cc5cc(C(F)(F)F)nn5C)c4)nc3N2C)CCC1 (centres unmarked) [Compound 670, 7-(1-methoxycyclobutyl)-4,8-dimethyl-2-(((1-((1-methyl-3-(trifluoromethyl)-1H-pyrazol-5-yl)methyl)-1H-pyrazol-4-yl)methyl)amino)-7,8-dihydropteridin-6(5H)-one] | < 300 | 
CC[C@H]1C(=O)Nc2c(C)nc(N[C@H]3C[C@H](Oc4cnc(C(F)(F)F)nc4)C3)nc2N1C [Compound 645, (S)-7-ethyl-4,8-dimethyl-2-((trans-3-((2-(trifluoromethyl)pyrimidin-5-yl)oxy)cyclobutyl)amino)-7,8-dihydropteridin-6(5H)-one] | < 300 | 
COc1c(F)cc(Cn2cnc(CNc3nc(C)c4c(n3)N(C)[C@@H](C(C)C)C(=O)N4)n2)cc1F [Compound 488, (S)-2-(((1-(3,5-difluoro-4-methoxybenzyl)-1H-1,2,4-triazol-3-yl)methyl)amino)-7-isopropyl-4,8-dimethyl-7,8-dihydropteridin-6(5H)-one] | 1000 to 5000 | 
CC[C@H]1C(=O)Nc2c(C)nc(NCc3cnn(Cc4cnc(Cl)c(F)c4)c3)nc2N1C [Compound 426, (7S)-2-(((1-((6-chloro-5-fluoropyridin-3-yl)methyl)-1H-pyrazol-4-yl)methyl)amino)-7-ethyl-4,8-dimethyl-7,8-dihydropteridin-6(5H)-one] | < 300 | 
Cc1nc(NCc2cnn(CC3CCC(F)(F)CC3)c2)nc2c1NC(=O)[C@H](C)N2C [Compound 58, (7S)-2-(((1-((4,4-difluorocyclohexyl)methyl)-1H-pyrazol-4-yl)methyl)amino)-4,7,8-trimethyl-7,8-dihydropteridin-6(5H)-one] | < 300 | 
Cc1nc(N[C@H]2C[C@@H](c3ccc(OC(F)(F)F)cc3)C2)nc2c1NC(=O)[C@H](C)N2C [Compound 507, (7S)-4,7,8-trimethyl-2-(((cis)-3-(4-(trifluoromethoxy)phenyl)cyclo-butyl)amino)-7,8-dihydropteridin-6(5H)-one] | < 300 | 
COC1(C2C(=O)Nc3c(C)nc(NCc4cnn(Cc5cc(C(F)(F)F)nn5C)c4)nc3N2C)CC1 (centres unmarked) [Compound 666, 7-(1-methoxycyclopropyl)-4,8-dimethyl-2-(((1-((1-methyl-3-(trifluoromethyl)-1H-pyrazol-5-yl)methyl)-1H-pyrazol-4-yl)methyl)amino)-7,8-dihydropteridin-6(511)-one] |  | IC50 (Colo 205 TCF/LEF luciferase reporter, five hours after addition of compound, read-out: TCF reporter Colo205 IC50): 300 to 1000 nM
Cc1nc(N[C@H]2C[C@@H](NC(=O)Cc3ccc(C(F)(F)F)nc3)C2)nc2c1NC(=O)[C@H](C(C)C)N2C [Compound 559, N-(cis-3-(((S)-7-isopropyl-4,8-dimethyl-6-oxo-5,6,7,8-tetrahydropteridin-2-yl)amino)cyclobutyl)-2-(6-(trifluoromethyl)pyridin-3-yl)acetamide] | 1000 to 5000 | 
C[C@H]1C(=O)Nc2cnc(NCc3cnn(Cc4ccc(C(F)(F)F)nc4)c3)nc2N1C [Compound 195, (7S)-7,8-dimethyl-2-(((1-((6-(trifluoromethyl)pyridin-3-yl)methyl)-1H-pyrazol-4-yl)methyl)amino)-7,8-dihydropteridin-6(5H)-one] | 300 to 1000 | 
Cc1nc(NC2CN(C(=O)c3ccc(C(F)(F)F)cc3)C2)nc2c1NC(=O)[C@H](C(C)C)N2C [Compound 622, (S)-7-isopropyl-4,8-dimethyl-2-((1-(4-(trifluoromethyl)benzoyl)azetidin-3-yl)amino)-7,8-dihydropteridin-6(5H)-one] | < 300 | 
Cc1nc(NC2CN(C(=O)[C@H]3CCCO3)C2)nc2c1NC(=O)[C@H](C(C)C)N2C [Compound 636, (S)-7-isopropyl-4,8-dimethyl-2-((1-((R)-tetrahydrofuran-2-carbonyl)azetidin-3-yl)amino)-7,8-dihydropteridin-6(5H)-one] | ≥ 5000 | 
Cc1nc(NCc2cnn(-c3ccc(F)cc3F)c2)nc2c1NC(=O)[C@H](C)N2C [Compound 98, (7S)-2-(((1-(2,4-difluorophenyl)-1H-pyrazol-4-yl)methyl)amino)-4,7,8-trimethyl-7,8-dihydropteridin-6(5H)-one] | 1000 to 5000 | 
Cc1nc(N[C@H]2C[C@@H](NC(=O)Oc3ccc(F)cc3)C2)nc2c1NC(=O)[C@H](C)N2C [Compound 464, 4-fluorophenyl (cis-3-(((S)-4,7,8-trimethyl-6-oxo-5,6,7,8-tetrahydropteridin-2-yl)amino)cyclobutyl)carbamate] |  | IC50 (Homo sapiens, 5 h, Colo 205 TCF/LEF luciferase reporter, five hours after addition of compound, read-out: TCF reporter Colo205 IC50): 300 to 1000 nM
Cc1nc(NCc2cnn(CC3CC(F)(F)C3)c2)nc2c1NC(=O)[C@H](C)N2C [Compound 61, (7S)-2-(((1-((3,3-difluorocyclobutyl)methyl)-1H-pyrazol-4-yl)methyl)amino)-4,7,8-trimethyl-7,8-dihydropteridin-6(5H)-one] | < 300 | 
CCN1C(=O)[C@H](C)N(CC)c2nc(NCc3cnn(Cc4cc(F)c(F)c(F)c4)c3)ncc21 [Compound 31, (7S)-5,8-diethyl-7-methyl-2-(((1-(3,4,5-trifluorobenzyl)-1H-pyrazol-4-yl)methyl)amino)-7,8-dihydropteridin-6(5H)-one] | < 300 | 
COCC[C@@H]1C(=O)Nc2c(C)nc(NCc3cnn(Cc4cc(C(F)(F)F)nn4C)c3)nc2N1C [Compound I-1648] |  | IC50 (Homo sapiens, COLO 205, 5 h, R-isomer at C2 (corresponding to C2 S-isomer), Colo 205 TCF/LEF luciferase reporter, 5 h, read-out: TCF reporter Colo205 IC50): ≥ 5000 nM
Cc1nc(NCc2ccn(Cc3ccc(C(F)(F)F)nc3)n2)nc2c1NC(=O)C1(CC(F)(F)C1)N2C [Compound 601, 3,3-difluoro-4′,8′-dimethyl-2′-(((1-((6-(trifluoromethyl)pyridin-3-yl)methyl)-1H-pyrazol-3-yl)methyl)amino)-5′,8′-dihydro-6′H-spiro[cyclobutane-1,7′-pteridin]-6′-one] | 300 to 1000 | 
Cc1nc(N[C@H]2C[C@H](Oc3ccc(OC(F)(F)F)cc3)C2)nc2c1N(C)C(=O)[C@H](C)N2C [Compound 325, (7S)-4,5,7,8-tetramethyl-2-((trans-3-(4-(trifluoromethoxy)phenoxy)-cyclobutyl)amino)-7,8-dihydropteridin-6(5H)-one] | 300 to 1000 | 
Cc1nc(N[C@H]2C[C@@H](Nc3ccnc(C(F)(F)F)n3)C2)nc2c1NC(=O)[C@H](C(C)C)N2C [Compound 539, (S)-7-isopropyl-4,8-dimethyl-2-((cis-3-((2-(trifluoromethyl)pyrimidin-4-yl)amino)cyclobutyl)amino)-7,8-dihydropteridin-6(5H)-one] | 300 to 1000 | 
